The text below walks through data of PMC11311998, “AR71, Histamine H3 Receptor Ligand—In Vitro and In Vivo Evaluation (Anti-Inflammatory Activity, Metabolic Stability, Toxicity, and Analgesic Action)” (International Journal of Molecular Sciences, 2024).

SMILES strings stand for the structures.

Assay [1] relates to rat models of neuropathic pain. The arrangement: method as in PMID 18164820. To be noted: surgically or virus-induced; cited from earlier work.
Assay [2] deals with SH-SY5Y cells. The format is cell-based, human. To be noted: rotenone alone 6.25 μM, 24 h. As to the method:
To test neuroprotective activity, SH-SY5Y cells were pre-treated for 1 h with various concentrations of AR71, after which rotenone (6.25 μM) was added and the cells were cultured for another 24 h. […] Co-treatment with AR71 protected cells from the toxic effect of rotenone, resulting in LDH leakage ranging from 10 to 22% only.
The protective effect of AR71 against rotenone-induced toxicity in SH-SY5Y cells was assessed by measuring LDH release. SH-SY5Y cells (6 × 10^3 cells/100 μL/well) were seeded in black 96-well plates Nunclon^TM Delta Surface no. 137101 (ThermoFischer Scientific, Waltham, MA, USA) and cultured overnight. The next day, the medium was removed and replaced with a fresh one with an increasing concentration of AR71 (0.0975–50 μM). After 1 h of compound pre-treatment, the neurotoxin rotenone (6.25 μM) was added, and the cells were cultured for another 24 h. For the negative and positive controls, cells were treated with 0.1% DMSO and 6.25 μM of rotenone alone, respectively. The cells treated with the compound alone were used to compare the effect with those co-treated with rotenone. After 24 h, the level of LDH leakage was measured by the CytoTox-ONE™ Homogeneous Membrane Integrity Assay (Promega, Madison, WI, USA) following the manufacturer’s protocol. Briefly, 100 μL of CytoTox-ONE™ reagent (Promega, Madison, WI, USA) was added to each well, and the cells were incubated for 10 min at room temperature protected from light. The fluorescence was measured using the multimode plate reader Tecan Spark (Tecan, Männedorf, Switzerland) with an excitation wavelength of 560 nm and an emission wavelength of 590 nm.

For assay [3], the system named is SH-SY5Y cells. As to the kind of experiment: mitochondrial membrane potential (JC-10). The format is cell-based, human. The note with it: 50 μM, 3 h. On the procedure: Neurotoxin-like rotenone induces oxidative stress inside cells that might influence mitochondrial membrane potential (MMP). Maintaining unaffected MMP is essential for neuroprotection. In our study, we tested the effect of AR71 on MMP in the presence and absence of rotenone.
Next, the effect of AR71 (0.78 μM) when co-treated with rotenone was tested; 1 μM carbonyl cyanide m-chlorophenylhydrazone (CCCP) was used as a positive control.
The MMP was measured by a commercially available kit (Sigma Aldrich, MAK159, for live cells) that utilises a cationic, lipophilic dye JC-10. It allows for ratiometric analysis of mitochondrial membrane potential, where a shift from orange (λEX/λEM: 540 nm/590 nm) to green fluorescence (λEX/λEM: 490 nm/525 nm) is indicative of compromised mitochondria. For this assay, the SH-SY5Y cells (1 × 10^4 cells/well) were seeded in a black-sided clear bottom 96-well plate (Thermo Scientific Nunclon^TM Delta Surface no. 137101, Denmark) in a complete culture medium. First, to choose the optimal concentration of rotenone in this assay, a dose–response effect of rotenone (0.05, 0.5, 5, 50 μM) was studied. Next, the cells were pre-treated with AR71 (0.78 μM) for 1 h before rotenone stimulation (50 μM) for another 3 h. […] The positive control was carbonyl cyanide m-chlorophenylhydrazone (CCCP; 1 μM)—uncoupling agent on the proton gradient. After incubation, 50 μL/well of the JC-10 dye loading solution was added to each well with cells. The plate was incubated for 45 min in the incubator. Then, 50 μL/well of Assay Buffer B was added to each well, and the fluorescence was monitored immediately. The red/green fluorescence intensity ratio was used to calculate the results.

For the compound `CNC(=O)c1ccc(Oc2ccc3c(c2)CCN(C2CCC2)CC3)nc1` [GSK189254], the “efficacy in rat models of neuropathic pain” value in assay [1] is “effective”.
With `CC(C)N1CCCN(C(=O)C2CCN(c3ccc(C(F)(F)F)nc3)CC2)CC1` [GSK334429], the “efficacy in rat models of neuropathic pain” value in assay [1] is given as “effective”.
With `C=C(C)[C@H]1Cc2c(ccc3c2O[C@@H]2COc4cc(OC)c(OC)cc4[C@@H]2C3=O)O1` [rotenone, reference compound], in assay [2], the “LDH leakage vs control cells” value is reported as “twice as much LDH leakage as control cells”. For the same compound, the “reduction of MMP compared with control cells” value in assay [3] is listed as 67%.
